Calls of active or inactive are those of the source.
Key:
[1] = target: Mitogen-activated protein kinase 10 (Homo sapiens, UniProt P53779); assay: Dose response biochemical screening assay for inhibitors of c-Jun N-Terminal Kinase 3 (JNK3). [Related pubchem assays: 746 ]
[2] = A Cell Based Assay for the Identification of Probe candidate Compounds with Anti- Venezuelan Equine Encephalitis virus. [Related pubchem assays: 2409, 2419, 1621, 2238, 2405, 2024, 2065, 2402, 2414, 1635, 1650, 2244 ]; assay type: functional
Vero [3] = assay: cytotoxicity of synthesized analogs in Vero cells, SAR follow-up, cytotoxicity control for West Nile virus antiviral project, cell-based, set II (AID 2402); assay type: functional; conditions: Chlorocebus sabaeus
[4] = target: 5-hydroxytryptamine receptor 1E (Homo sapiens, UniProt P28566); assay: Counterscreen assay for S1P3 antagonists: Dose response cell-based high throughput screening assay to identify antagonists of the 5-Hydroxytryptamine Receptor Subtype 1E (5HT1E). [Related pubchem assays: 1429, 485 ]; assay type: functional
[5] = target: Sphingosine 1-phosphate receptor 3 (Homo sapiens, UniProt Q99500); assay: Dose response cell-based high throughput screening assay for antagonists of the Sphingosine 1-Phosphate Receptor 3 (S1P3). [Related pubchem assays: 1429, 485 ]; assay type: functional
[6] = cytotoxicity in HPDE-C7 cells, cell-based, fluorescence, HTS (AID 430); assay type: functional; conditions: Homo sapiens
[7] = cytotoxicity in KRAS-transformed pancreatic duct cells, primary screen, cell-based, fluorescence, HTS (AID 431); assay type: functional; conditions: Homo sapiens;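 further: cell line used: HPDE-C7K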
[8] = ADAM10 inhibitors, peptide cleavage, dose response, biochemical, QFRET (AID 743254);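 further: ADAM10 enzyme with the DM2 quenched FRET peptide as substrate; EDANS fluorescence gain as the protease cuts the substrate; inhibitor potency against ADAM10 proteolytic activity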
Cytochrome P450 3A4 [9] = target: T1, Cytochrome P450 3A4 (Homo sapiens, UniProt P08684); conditions: Potency
Ephrin type-A receptor 4 = Ephrin type-A receptor 4 (Mus musculus, UniProt Q03137); assay: inhibitors of EphA4 binding to KYL peptide, primary screen, biochemical, colorimetric, mouse EphA4 (AID 689); assay type: functional
Cytochrome P450 3A4 [10] = target: T1, Cytochrome P450 3A4
Cytochrome P450 2C19 = Cytochrome P450 2C19 (Homo sapiens, UniProt P33261); assay: Cytochrome panel assay with activity outcomes. Panel member name: p450-cyp2c19 Compounds with AC50 equal or less than 10 uM are considered active; assay type: functional; conditions: read-out: AC50
Kallikrein-7 = Kallikrein-7 (Homo sapiens, UniProt P49862); assay: Fluorescence Intensity-based biochemical primary high throughput dose response assay to identify activators of kallikrein-7 (K7) zymogen.
[11] = target: T2, RNA-binding protein pos-1 (Caenorhabditis elegans, UniProt G5EF15); assay: inhibitors of POS-1/mex-3 RNA binding, dose response, biochemical, fluorescence polarization (AID 1964);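 further: purified POS-1 fused to maltose binding protein made in E. coli; potency of compounds blocking POS-1 binding to fluorescent RNA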
T2 sequence (G5EF15 whole entry): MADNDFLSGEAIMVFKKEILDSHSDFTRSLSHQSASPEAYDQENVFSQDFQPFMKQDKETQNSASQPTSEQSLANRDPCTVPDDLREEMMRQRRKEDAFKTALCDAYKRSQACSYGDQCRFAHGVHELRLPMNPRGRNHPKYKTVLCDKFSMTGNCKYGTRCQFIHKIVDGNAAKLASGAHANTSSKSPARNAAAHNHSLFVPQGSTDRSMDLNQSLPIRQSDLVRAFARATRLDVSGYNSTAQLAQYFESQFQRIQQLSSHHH

[12] = target: T3, Zinc finger protein mex-5 (Caenorhabditis elegans, UniProt Q9XUB2); assay: MEX-5/TCR-2 RNA interaction inhibitors, dose response, biochemical, C. elegans, fluorescence polarization (AID 1960)
T3 sequence (Q9XUB2 whole entry): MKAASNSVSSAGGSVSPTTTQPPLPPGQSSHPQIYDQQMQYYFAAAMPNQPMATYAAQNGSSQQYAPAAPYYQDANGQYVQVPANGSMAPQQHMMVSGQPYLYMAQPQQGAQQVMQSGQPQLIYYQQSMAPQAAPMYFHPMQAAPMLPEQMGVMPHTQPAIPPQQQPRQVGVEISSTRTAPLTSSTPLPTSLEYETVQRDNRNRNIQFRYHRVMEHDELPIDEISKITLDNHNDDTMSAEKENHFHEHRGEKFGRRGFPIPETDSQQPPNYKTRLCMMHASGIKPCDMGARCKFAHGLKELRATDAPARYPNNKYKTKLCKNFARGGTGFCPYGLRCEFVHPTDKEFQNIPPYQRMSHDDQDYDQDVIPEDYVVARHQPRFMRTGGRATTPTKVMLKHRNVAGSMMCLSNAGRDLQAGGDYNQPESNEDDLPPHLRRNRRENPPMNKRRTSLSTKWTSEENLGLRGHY

[13] = HEp-2 cell cytotoxicity, dose response, cytotoxicity control for RSV inhibitor project, HTS (AID 2410); assay type: functional; conditions: human respiratory syncytial virus
[14] = nonselective inhibitors of cellular cAMP signaling, dose response, counter-screen for MC4R biased antagonist project, cell-based, TR-FRET cAMP detection (AID 602305); assay type: functional;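 further: U2OS cells stimulated with forskolin near its EC80 as the cAMP inducer; potency is for inhibition of forskolin-stimulated cAMP signaling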
cells [15] = assay: cells
Vero [16] = assay: host cell cytotoxicity of antiviral hits, dose response, cytotoxicity control for West Nile virus antiviral project, secondary assay (AID 1650); assay type: functional; conditions: Chlorocebus sabaeus
Melanocortin receptor 4 = Melanocortin receptor 4 (Homo sapiens, UniProt P32245); assay: MC4R antagonist potency on cAMP, dose response, cell-based, TR-FRET, biased antagonists (AID 602298); assay type: functional;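 further: antagonist potency against agonist-stimulated cAMP production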
[17] = P. falciparum late gametocyte killing, dose response, luminescence (AID 1117278); assay type: functional, cell-based;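 further: gametocytes exposed to compound for 24 hours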
[18] = Jurkat T cell cytotoxicity, dose response, cytotoxicity control for P. falciparum gametocyte viability project, luminescence (AID 1117277); assay type: functional, cell-based;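 further: potency reflects loss of cellular ATP meaning fewer viable cells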
[19] = target: 5-hydroxytryptamine receptor 1A (Homo sapiens, UniProt P08908); assay type: functional
[20] = half-maximal inhibitory concentration for glucagon-like peptide-1 release, STC-1 cell line, dose-response (AID 1117345); assay type: functional, cell-based
[21] = Glucagon-like peptide 1 release potency, NCI-H716 cell line, dose-response, half-maximal inhibitory concentration (AID 1117344); assay type: functional, cell-based
[22] = target: T4, Low molecular weight phosphotyrosine protein phosphatase (Homo sapiens, UniProt P24666); assay: LMPTP phosphatase inhibitors, colorimetric pNPP readout, dose response, orthogonal assay, biochemical, absorbance, pNPP substrate, LMPTP-A isoform, set 2 (AID 743308); assay type: functional
T4 sequence (P24666 whole entry): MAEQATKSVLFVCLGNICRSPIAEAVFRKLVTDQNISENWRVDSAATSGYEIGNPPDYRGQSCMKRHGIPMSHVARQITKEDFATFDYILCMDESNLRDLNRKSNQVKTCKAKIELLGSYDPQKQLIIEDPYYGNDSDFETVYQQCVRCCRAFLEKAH

[23] = target: T4, Low molecular weight phosphotyrosine protein phosphatase; assay: LMPTP phosphatase inhibitors, dose response, biochemical, OMFP substrate, fluorescence intensity, set 2 (AID 743307); assay type: functional
cells [24] = assay type: functional, cell-based; conditions: HEK-CNG
Galanin receptor type 3 = target: T5, Galanin receptor type 3 (Homo sapiens, UniProt O60755); assay: Fluorescence-based cell-based primary high throughput dose response assay to identify antagonists of the Galanin Receptor 3 (GalR3).; assay type: functional
T5 sequence (O60755 whole entry): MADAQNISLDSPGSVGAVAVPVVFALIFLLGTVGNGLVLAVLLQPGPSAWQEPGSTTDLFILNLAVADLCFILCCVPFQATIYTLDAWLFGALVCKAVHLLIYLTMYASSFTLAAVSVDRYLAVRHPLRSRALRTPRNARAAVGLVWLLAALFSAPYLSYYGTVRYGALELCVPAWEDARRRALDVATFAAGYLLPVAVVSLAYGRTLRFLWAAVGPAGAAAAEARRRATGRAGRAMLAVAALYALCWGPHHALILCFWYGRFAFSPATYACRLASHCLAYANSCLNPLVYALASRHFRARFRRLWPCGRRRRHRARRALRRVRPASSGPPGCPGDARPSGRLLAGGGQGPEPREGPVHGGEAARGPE

Mitogen-activated protein kinase 10, sequence (P53779 whole entry): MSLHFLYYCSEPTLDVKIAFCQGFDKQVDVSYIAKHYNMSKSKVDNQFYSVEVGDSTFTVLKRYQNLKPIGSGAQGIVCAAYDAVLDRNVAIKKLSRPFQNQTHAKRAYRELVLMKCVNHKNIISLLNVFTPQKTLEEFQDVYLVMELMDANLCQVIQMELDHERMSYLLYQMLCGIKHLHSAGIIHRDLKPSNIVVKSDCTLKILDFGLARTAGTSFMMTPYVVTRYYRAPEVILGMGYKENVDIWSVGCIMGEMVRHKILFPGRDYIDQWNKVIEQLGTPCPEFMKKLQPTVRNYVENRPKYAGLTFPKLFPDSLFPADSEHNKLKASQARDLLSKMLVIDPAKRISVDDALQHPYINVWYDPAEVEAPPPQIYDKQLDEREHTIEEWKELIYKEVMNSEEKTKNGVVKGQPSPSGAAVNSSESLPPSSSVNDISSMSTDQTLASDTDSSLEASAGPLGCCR
T1 sequence (P08684 whole entry): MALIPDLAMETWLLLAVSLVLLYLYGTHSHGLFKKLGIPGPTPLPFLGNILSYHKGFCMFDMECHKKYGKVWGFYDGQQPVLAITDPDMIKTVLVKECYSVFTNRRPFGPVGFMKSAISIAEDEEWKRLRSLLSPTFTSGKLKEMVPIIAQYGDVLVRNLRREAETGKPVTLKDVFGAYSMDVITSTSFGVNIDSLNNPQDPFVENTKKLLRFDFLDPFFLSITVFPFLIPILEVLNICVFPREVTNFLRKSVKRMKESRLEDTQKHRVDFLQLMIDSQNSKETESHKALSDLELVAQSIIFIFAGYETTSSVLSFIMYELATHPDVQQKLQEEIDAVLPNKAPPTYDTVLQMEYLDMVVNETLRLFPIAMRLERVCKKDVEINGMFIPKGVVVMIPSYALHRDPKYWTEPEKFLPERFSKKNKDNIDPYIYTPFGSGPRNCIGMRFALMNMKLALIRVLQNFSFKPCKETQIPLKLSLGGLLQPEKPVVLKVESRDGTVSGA
Melanocortin receptor 4, sequence (P32245 whole entry): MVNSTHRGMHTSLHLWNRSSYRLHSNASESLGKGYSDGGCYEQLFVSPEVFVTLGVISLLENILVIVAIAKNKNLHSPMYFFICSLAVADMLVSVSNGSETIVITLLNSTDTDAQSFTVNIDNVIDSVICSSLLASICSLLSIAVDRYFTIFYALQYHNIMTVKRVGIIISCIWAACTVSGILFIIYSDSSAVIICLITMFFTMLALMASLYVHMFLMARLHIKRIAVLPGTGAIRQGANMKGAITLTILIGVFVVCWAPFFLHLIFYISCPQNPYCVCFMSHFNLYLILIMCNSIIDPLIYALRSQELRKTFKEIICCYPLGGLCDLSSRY
Ephrin type-A receptor 4, sequence (Q03137 whole entry): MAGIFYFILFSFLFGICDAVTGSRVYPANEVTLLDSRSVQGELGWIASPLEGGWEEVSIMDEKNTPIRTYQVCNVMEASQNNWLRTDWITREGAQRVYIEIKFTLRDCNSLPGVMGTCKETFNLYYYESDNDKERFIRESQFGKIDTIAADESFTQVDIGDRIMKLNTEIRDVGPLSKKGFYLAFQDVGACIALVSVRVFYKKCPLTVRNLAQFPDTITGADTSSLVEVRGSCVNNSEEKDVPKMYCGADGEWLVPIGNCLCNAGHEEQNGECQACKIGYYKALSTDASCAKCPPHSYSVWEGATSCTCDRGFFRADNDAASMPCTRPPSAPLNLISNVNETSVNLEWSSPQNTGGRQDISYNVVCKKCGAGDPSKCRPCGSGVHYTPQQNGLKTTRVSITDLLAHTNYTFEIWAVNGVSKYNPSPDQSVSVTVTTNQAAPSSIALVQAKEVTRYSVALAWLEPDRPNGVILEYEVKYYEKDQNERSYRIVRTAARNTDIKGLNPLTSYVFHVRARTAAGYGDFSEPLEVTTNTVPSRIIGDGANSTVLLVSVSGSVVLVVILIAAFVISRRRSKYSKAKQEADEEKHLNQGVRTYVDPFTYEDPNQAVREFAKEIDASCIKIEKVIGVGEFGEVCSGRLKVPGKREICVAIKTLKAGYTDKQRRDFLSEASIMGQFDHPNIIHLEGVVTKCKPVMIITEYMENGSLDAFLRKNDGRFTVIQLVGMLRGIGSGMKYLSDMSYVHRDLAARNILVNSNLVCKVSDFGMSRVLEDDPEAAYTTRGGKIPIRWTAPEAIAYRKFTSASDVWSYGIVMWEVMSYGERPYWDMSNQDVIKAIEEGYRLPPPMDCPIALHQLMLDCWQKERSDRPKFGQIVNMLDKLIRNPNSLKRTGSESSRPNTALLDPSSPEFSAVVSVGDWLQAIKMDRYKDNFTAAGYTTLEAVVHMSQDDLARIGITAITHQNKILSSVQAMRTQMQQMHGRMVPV
Kallikrein-7, sequence (P49862 whole entry, the tested form may be a part): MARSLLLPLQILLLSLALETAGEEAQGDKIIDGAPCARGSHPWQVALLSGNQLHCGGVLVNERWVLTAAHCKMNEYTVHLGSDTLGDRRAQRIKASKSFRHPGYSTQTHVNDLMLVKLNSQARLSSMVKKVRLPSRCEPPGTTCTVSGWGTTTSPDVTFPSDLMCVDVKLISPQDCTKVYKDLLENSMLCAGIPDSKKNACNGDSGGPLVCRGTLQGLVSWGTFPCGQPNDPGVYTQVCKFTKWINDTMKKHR
5-hydroxytryptamine receptor 1E, sequence (P28566 whole entry): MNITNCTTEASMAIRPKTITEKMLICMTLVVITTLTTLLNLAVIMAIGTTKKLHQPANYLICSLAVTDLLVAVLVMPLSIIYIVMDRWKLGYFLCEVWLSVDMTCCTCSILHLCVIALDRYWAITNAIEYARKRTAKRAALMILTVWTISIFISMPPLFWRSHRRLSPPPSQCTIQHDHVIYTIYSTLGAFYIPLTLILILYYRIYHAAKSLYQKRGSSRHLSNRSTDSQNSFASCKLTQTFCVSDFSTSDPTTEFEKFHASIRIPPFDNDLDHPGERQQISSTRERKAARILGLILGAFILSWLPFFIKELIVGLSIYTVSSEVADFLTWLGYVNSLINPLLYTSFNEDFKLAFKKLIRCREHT
5-hydroxytryptamine receptor 1A, sequence (P08908 whole entry): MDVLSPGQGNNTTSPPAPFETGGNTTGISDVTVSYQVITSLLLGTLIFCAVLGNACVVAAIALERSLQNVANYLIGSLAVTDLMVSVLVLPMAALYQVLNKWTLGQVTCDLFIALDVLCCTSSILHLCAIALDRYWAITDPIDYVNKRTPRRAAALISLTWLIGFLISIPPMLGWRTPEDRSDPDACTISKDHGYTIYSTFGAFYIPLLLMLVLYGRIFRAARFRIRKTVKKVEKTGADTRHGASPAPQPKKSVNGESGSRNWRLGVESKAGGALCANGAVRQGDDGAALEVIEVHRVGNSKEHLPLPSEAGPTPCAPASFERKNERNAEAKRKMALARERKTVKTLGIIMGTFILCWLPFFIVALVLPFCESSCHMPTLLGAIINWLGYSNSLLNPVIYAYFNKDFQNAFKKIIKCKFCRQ
Cytochrome P450 2C19, sequence (P33261 whole entry): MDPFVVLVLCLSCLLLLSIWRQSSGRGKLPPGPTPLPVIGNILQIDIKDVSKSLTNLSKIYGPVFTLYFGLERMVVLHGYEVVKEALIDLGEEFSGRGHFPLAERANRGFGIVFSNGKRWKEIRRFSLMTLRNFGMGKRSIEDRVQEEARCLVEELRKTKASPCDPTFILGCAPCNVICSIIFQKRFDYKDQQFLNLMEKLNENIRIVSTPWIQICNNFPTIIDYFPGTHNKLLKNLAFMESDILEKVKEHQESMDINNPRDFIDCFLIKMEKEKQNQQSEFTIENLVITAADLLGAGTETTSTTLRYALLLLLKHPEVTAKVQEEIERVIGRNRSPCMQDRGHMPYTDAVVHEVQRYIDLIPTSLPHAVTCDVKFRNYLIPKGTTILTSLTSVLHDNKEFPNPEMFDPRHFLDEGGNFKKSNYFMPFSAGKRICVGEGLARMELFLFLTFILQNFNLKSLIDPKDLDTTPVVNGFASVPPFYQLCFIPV
Sphingosine 1-phosphate receptor 3, sequence (Q99500 whole entry): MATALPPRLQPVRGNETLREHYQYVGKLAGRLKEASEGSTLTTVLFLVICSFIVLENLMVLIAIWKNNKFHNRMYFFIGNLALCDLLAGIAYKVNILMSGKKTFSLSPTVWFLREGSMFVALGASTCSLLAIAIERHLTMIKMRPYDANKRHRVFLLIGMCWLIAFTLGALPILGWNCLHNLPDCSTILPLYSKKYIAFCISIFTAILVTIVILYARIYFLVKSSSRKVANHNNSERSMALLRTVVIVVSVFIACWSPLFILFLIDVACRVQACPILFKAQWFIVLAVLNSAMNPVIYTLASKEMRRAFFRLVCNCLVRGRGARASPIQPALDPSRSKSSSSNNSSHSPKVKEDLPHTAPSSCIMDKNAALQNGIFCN

SMILES: Fc1cc2nccnc2cc1N1CCSCC1
- IC50 [1]: 50.2 µM (not active)

SMILES: COc1ccc(-c2csc(N(CCCBr)C(=O)c3ccccc3Cl)n2)cc1
- IC50 [2]: > 66.6 µM (active)
- CC50 (Vero [3]): 78.2 µM (active)

SMILES: Cc1ccc(NC(=O)C(C)c2ccc([N+](=O)[O-])cc2)cc1Cl (centres undefined)
- IC50 [4]: 13.4 µM (not active)
- IC50 [5]: 11.3 µM (not active)

SMILES: COc1ccc(-c2[nH]nc(C(F)(F)F)c2-c2cc3ccccc3o2)c(O)c1
- EC50 [6]: 3.24 µM (active)
- EC50 [7]: 3.68 µM (active)
- IC50 [8]: > 69.5 µM (inactive)

SMILES: Cc1nc(N2CCOCC2)c2nc(-c3ccccc3)n(C(C)CN(C)C)c2n1 (centres undefined)
- AC50 (Cytochrome P450 3A4 [9]): 20 µM (inconclusive)

SMILES: CC1Cc2ccccc2N1Cc1nc(O)c2ccc(C(F)(F)F)cc2n1 (centres undefined)
- IC50 (Ephrin type-A receptor 4): > 100 µM (not active)
- AC50 (Cytochrome P450 3A4 [10]): 25.1 µM (inconclusive)
- AC50 (Cytochrome P450 2C19): 0.0282 µM (inconclusive)

SMILES: O=C(NCCCN1CCOCC1)c1cc2nc(-c3ccco3)cc(C(F)(F)F)n2n1
- EC50 (Kallikrein-7): > 69.5 µM (inactive)

SMILES: COC1(OC)N=C(N)C2(C#N)C(c3ccc4c(c3)OCO4)C12C#N (centres undefined)
- EC50 [11]: 59.9 µM (active)
- IC50 [1]: > 93.1 µM (not active)
- EC50 [12]: 64.3 µM (active)

SMILES: Cc1ccc(Nc2nc(N/N=C/c3c[nH]c4ccccc34)nc(N3CCOCC3)n2)cc1
- CC50 [13]: 18.2 µM (active)
- IC50 [14]: > 64.6 µM (inactive)
- IC50 (cells [15]): 20.5 µM (active)
- CC50 (Vero [16]): 12.9 µM (active)
- IC50 (Melanocortin receptor 4): > 64.6 µM (inactive)

SMILES: CCOC(=O)CC1CCCCN1Cc1cn(C)nc1-c1ccc2c(c1)OCCO2 (centres undefined)
- IC50 [17]: > 109 µM (inactive)
- IC50 [18]: > 83.3 µM (inactive)

SMILES: Cn1cc(/C(Cc2ccccc2)=N\O)c2ccccc21
- EC50 [19]: > 50 µM (not active)

SMILES: CCOC(=O)[C@@H](N)CS
- IC50 [20]: 14.3 µM (inactive)
- IC50 [21]: > 40 µM (inactive)

SMILES: c1ccc(-c2nc(NCCN3CCCCC3)c3ccccc3n2)cc1
- IC50 [22]: > 80 µM (inactive)
- IC50 [23]: 64.3 µM (inactive)

SMILES: c1ccc(-c2nc(NCCN3CCOCC3)c3ccccc3n2)cc1
- IC50 [22]: 53.5 µM (inactive)
- IC50 [23]: 25.4 µM (inactive)

SMILES: CC(=O)OC(C)C[N+](C)(C)C (centres undefined) [METHACHOLINE CHLORIDE]
- EC50 (cells [24]): > 30 µM (inactive)
- IC50 (Galanin receptor type 3): 7.36 µM (active)
- IC50 [20]: > 40 µM (inactive)
- IC50 [21]: > 40 µM (inactive)
